Measurements: BigSolDB 2.1

CO/C=C(/C(=O)OC)c1ccccc1Oc1cc(Oc2ccccc2C#N)ncn1
solubility (mole fraction)
Conditions	288.15 K	293.15 K	298.15 K	303.15 K	308.15 K	313.15 K	318.15 K	323.15 K	328.15 K
in ethanol	0.000747	0.000923	0.00118	0.00171	0.0022	0.00296	0.00422	0.0056	0.00786
in ethyl acetate	0.0246	0.0283	0.0319	0.0415	0.0473	0.059	0.0756	0.0879	0.108
in isobutanol	0.000441	0.000628	0.00084	0.00129	0.0017	0.00231	0.00324	0.00441	0.00571
in isopropanol	0.000339	0.000476	0.000649	0.00102	0.00134	0.00183	0.0026	0.00358	0.00452
in methanol	0.00135	0.00165	0.00205	0.0027	0.00368	0.00497	0.00683	0.0096	0.0144
in n-butanol	0.000514	0.000733	0.000955	0.00149	0.00185	0.00246	0.0034	0.00476	0.00635
in n-propanol	0.000654	0.000829	0.00108	0.00162	0.00207	0.00277	0.00387	0.00527	0.0072
